Reference: patent US20230263822A1, “MODULATION OF FACTOR 11 EXPRESSION” (Ionis Pharmaceuticals, Inc., priority 2008, published 2023)
Strand notation (5' to 3'): a small letter for the sugar, then the base; units joined by * are phosphorothioate-linked, units joined directly phosphodiester-linked; [ ] holds rarer units or linkages, { } end groups; capitals alone tell only the bases. e = 2'-O-(2-methoxyethyl) (MOE); [5mC] = 5-methylcytosine; d = 2'-deoxy (DNA)

system: human Factor 11 mRNA; assay: Antisense inhibition of human Factor 11 in HepG2 cells by microwalk gapmers, lipofectin, 75 nM (Example 3); format: cell-based; details: HepG2, lipofectin, ~24 h, gapmers targeted to nucleobases 656 to 704 of SEQ ID NO: 1
Procedure: These gapmers were designed by creating gapmers shifted slightly upstream and downstream (i.e. “microwalk”) of the original gapmers from Table 3. Gapmers were also created with various motifs, e.g. 5-10-5 MOE, 3-14-3 MOE, and 2-13-5 MOE. These gapmers were tested in vitro. Cultured HepG2 cells at a density of 10,000 cells per well were transfected using lipofectin reagent with 75 nM antisense oligonucleotide. After a treatment period of approximately 24 hours, RNA was isolated from the cells and Factor 11 mRNA levels were measured by quantitative real-time PCR. Factor 11 mRNA levels were adjusted according to total RNA content, as measured by RIBOGREEN. Results are presented as percent inhibition of Factor 11, relative to untreated control cells.
The chimeric antisense oligonucleotides in Table 4 were designed as 5-10-5 MOE, 3-14-3 MOE, and 2-13-5 MOE gapmers. The first listed gapmers in Table 4 are the original gapmers (see Table 3) from which the remaining gapmers were designed via microwalk and are designated by an asterisk. The 5-10-5 gapmers are 20 nucleotides in length, wherein the central gap segment is comprised of 10 2′-deoxynucleotides and is flanked on both sides (in the 5′ and 3′ directions) by wings comprising 5 nucleotides each. The 3-14-3 gapmers are 20 nucleotides in length, wherein the central gap segment is comprised of 14 2′-deoxynucleotides and is flanked on both sides (in the 5′ and 3′ directions) by wings comprising 3 nucleotides each. The 2-13-5 gapmers are 20 nucleotides in length, wherein the central gap segment is comprised of 13 2′-deoxynucleotides. The central gap is flanked on the 5′ end with a wing comprising 2 nucleotides and on the 3′ end with a wing comprising 5 nucleotides. For each of the motifs (5-10-5, 3-14-3, and 2-13-5), each nucleotide in the 5′ wing segment and each nucleotide in the 3′ wing segment has a 2′-MOE modification. The internucleoside linkages throughout each gapmer are phosphorothioate (P=S) linkages. All cytidine residues throughout each gapmer are 5-methyl cytidines. “Target start site” indicates the 5′-most nucleotide to which the gapmer is targeted. “Target stop site” indicates the 3′-most nucleotide to which the gapmer is targeted. Each gapmer listed in Table 4 is targeted to SEQ ID NO: 1 (GENBANK Accession No. NM_000128.3).

In order of rising “% inhibition” value:
1. 416876 (antisense eT*e[5mC]*e[5mC]*dA*d[5mC]*dA*dT*dA*dA*dA*dT*dG*dT*d[5mC]*dT*dT*dT*eG*eT*eT) [compound 416876]  37%
2. 416958 (antisense e[5mC]*eT*dA*dG*dG*dT*d[5mC]*d[5mC]*dA*d[5mC]*dA*dT*dA*dA*dA*eT*eG*eT*e[5mC]*eT) [compound 416958]  43%
3. 416953 (antisense eT*e[5mC]*d[5mC]*dA*d[5mC]*dA*dT*dA*dA*dA*dT*dG*dT*d[5mC]*dT*eT*eT*eG*eT*eT) [compound 416953]  45%
4. 416877 (antisense eG*eT*e[5mC]*d[5mC]*dA*d[5mC]*dA*dT*dA*dA*dA*dT*dG*dT*d[5mC]*dT*dT*eT*eG*eT) [compound 416877]  51%
5. 416807 (antisense eT*eA*eA*eA*eT*dG*dT*d[5mC]*dT*dT*dT*dG*dT*dT*dG*e[5mC]*eA*eA*eG*e[5mC]) [compound 416807]  51%
6. 416957 (antisense eT*eA*dG*dG*dT*d[5mC]*d[5mC]*dA*d[5mC]*dA*dT*dA*dA*dA*dT*eG*eT*e[5mC]*eT*eT) [compound 416957]  59%
7. 416812 (antisense eT*e[5mC]*e[5mC]*eA*e[5mC]*dA*dT*dA*dA*dA*dT*dG*dT*d[5mC]*dT*eT*eT*eG*eT*eT) [compound 416812]  59%
8. 416889 (antisense e[5mC]*eT*eT*d[5mC]*dA*dT*dG*dT*d[5mC]*dT*dA*dG*dG*dT*d[5mC]*d[5mC]*dA*e[5mC]*eA*eT) [compound 416889]  60%
9. 416956 (antisense eA*eG*dG*dT*d[5mC]*d[5mC]*dA*d[5mC]*dA*dT*dA*dA*dA*dT*dG*eT*e[5mC]*eT*eT*eT) [compound 416956]  61%
10. 416813 (antisense eG*eT*e[5mC]*e[5mC]*eA*d[5mC]*dA*dT*dA*dA*dA*dT*dG*dT*d[5mC]*eT*eT*eT*eG*eT) [compound 416813]  70%
11. 416817 (antisense eT*e[5mC]*eT*eA*eG*dG*dT*d[5mC]*d[5mC]*dA*d[5mC]*dA*dT*dA*dA*eA*eT*eG*eT*e[5mC]) [compound 416817]  74%
12. 416886 (antisense e[5mC]*eA*eT*dG*dT*d[5mC]*dT*dA*dG*dG*dT*d[5mC]*d[5mC]*dA*d[5mC]*dA*dT*eA*eA*eA) [compound 416886]  74%
13. 416870 (antisense eT*eA*eA*dA*dT*dG*dT*d[5mC]*dT*dT*dT*dG*dT*dT*dG*d[5mC]*dA*eA*eG*e[5mC]) [compound 416870]  76%
14. 416823 (antisense e[5mC]*e[5mC]*eT*eT*e[5mC]*dA*dT*dG*dT*d[5mC]*dT*dA*dG*dG*dT*e[5mC]*e[5mC]*eA*e[5mC]*eA) [compound 416823]  77%
15. 416881 (antisense e[5mC]*eT*eA*dG*dG*dT*d[5mC]*d[5mC]*dA*d[5mC]*dA*dT*dA*dA*dA*dT*dG*eT*e[5mC]*eT) [compound 416881]  81%
16. 416814 (antisense eA*eG*eG*eT*e[5mC]*d[5mC]*dA*d[5mC]*dA*dT*dA*dA*dA*dT*dG*eT*e[5mC]*eT*eT*eT) [compound 416814]  83%
17. 416821 (antisense eT*e[5mC]*eA*eT*eG*dT*d[5mC]*dT*dA*dG*dG*dT*d[5mC]*d[5mC]*dA*e[5mC]*eA*eT*eA*eA) [compound 416821]  84%
18. 416893 (antisense eT*eG*e[5mC]*d[5mC]*d[5mC]*dT*dT*d[5mC]*dA*dT*dG*dT*d[5mC]*dT*dA*dG*dG*eT*e[5mC]*e[5mC]) [compound 416893]  90%
19. 416868 (antisense eA*eA*eT*dG*dT*d[5mC]*dT*dT*dT*dG*dT*dT*dG*d[5mC]*dA*dA*dG*e[5mC]*eG*e[5mC]) [compound 416868]  93%

same assay, conditions: HepG2 cells, lipofectin, gapmers targeted to nucleobases 738 to 762 of SEQ ID NO: 1

In order of rising “% inhibition” value:
1. 416979 (antisense eT*e[5mC]*dA*dT*d[5mC]*d[5mC]*dG*dT*dG*d[5mC]*dA*dT*d[5mC]*dT*dT*eT*e[5mC]*eT*eT*eG) [compound 416979]  63%
2. 416833 (antisense eT*e[5mC]*eA*eT*e[5mC]*d[5mC]*dG*dT*dG*d[5mC]*dA*dT*d[5mC]*dT*dT*eT*e[5mC]*eT*eT*eG) [compound 416833]  65%
3. 416980 (antisense eG*eT*d[5mC]*dA*dT*d[5mC]*d[5mC]*dG*dT*dG*d[5mC]*dA*dT*d[5mC]*dT*eT*eT*e[5mC]*eT*eT) [compound 416980]  87%

same assay, conditions: HepG2 cells, lipofectin, gapmers targeted to nucleobases 1018 to 1042 of SEQ ID NO: 1

In order of rising “% inhibition” value:
1. 416835 (antisense eA*e[5mC]*e[5mC]*eG*eG*dG*dA*dT*dG*dA*dT*dG*dA*dG*dT*eG*e[5mC]*eA*eG*eA) [compound 416835]  83%
2. 416981 (antisense e[5mC]*e[5mC]*dG*dG*dG*dA*dT*dG*dA*dT*dG*dA*dG*dT*dG*e[5mC]*eA*eG*eA*eT) [compound 416981]  87%
3. 416904 (antisense e[5mC]*e[5mC]*eG*dG*dG*dA*dT*dG*dA*dT*dG*dA*dG*dT*dG*d[5mC]*dA*eG*eA*eT) [compound 416904]  90%

same assay, conditions: HepG2 cells, lipofectin, gapmers targeted to nucleobases 1062 to 1091 of SEQ ID NO: 1

In order of rising “% inhibition” value:
1. 416995 (antisense eT*eT*d[5mC]*dT*dT*dT*dG*dA*dG*dA*dT*dT*d[5mC]*dT*dT*eT*eG*eG*eG*e[5mC]) [compound 416995]  64%
2. 416846 (antisense eT*eT*e[5mC]*eT*eT*dT*dG*dA*dG*dA*dT*dT*d[5mC]*dT*dT*eT*eG*eG*eG*e[5mC]) [compound 416846]  72%
3. 416987 (antisense eG*eA*dT*dT*d[5mC]*dT*dT*dT*dG*dG*dG*d[5mC]*d[5mC]*dA*dT*eT*e[5mC]*e[5mC]*eT*eG) [compound 416987]  80%
4. 416913 (antisense eT*eG*eA*dG*dA*dT*dT*d[5mC]*dT*dT*dT*dG*dG*dG*d[5mC]*d[5mC]*dA*eT*eT*e[5mC]) [compound 416913]  93%

same assay, conditions: HepG2 cells, lipofectin, gapmers targeted to nucleobases 1275 to 1318 of SEQ ID NO: 1

In order of falling “% inhibition” value:
1. 416934 (antisense eG*eA*e[5mC]*dG*dG*d[5mC]*dA*dT*dT*dG*dG*dT*dG*d[5mC]*dA*d[5mC]*dA*eG*eT*eT) [compound 416934]  90%
2. 416939 (antisense e[5mC]*eA*eG*d[5mC]*dG*dG*dA*d[5mC]*dG*dG*d[5mC]*dA*dT*dT*dG*dG*dT*eG*e[5mC]*eA) [compound 416939]  88%
3. 417014 (antisense eG*e[5mC]*dG*dG*dA*d[5mC]*dG*dG*d[5mC]*dA*dT*dT*dG*dG*dT*eG*e[5mC]*eA*e[5mC]*eA) [compound 417014]  87%
4. 417009 (antisense e[5mC]*eG*dG*d[5mC]*dA*dT*dT*dG*dG*dT*dG*d[5mC]*dA*d[5mC]*dA*eG*eT*eT*eT*e[5mC]) [compound 417009]  85%
5. 417019 (antisense eT*eG*dG*d[5mC]*dA*dG*d[5mC]*dG*dG*dA*d[5mC]*dG*dG*d[5mC]*dA*eT*eT*eG*eG*eT) [compound 417019]  84%
6. 417008 (antisense eG*eG*d[5mC]*dA*dT*dT*dG*dG*dT*dG*d[5mC]*dA*d[5mC]*dA*dG*eT*eT*eT*e[5mC]*eT) [compound 417008]  82%
7. 417006 (antisense e[5mC]*eA*dT*dT*dG*dG*dT*dG*d[5mC]*dA*d[5mC]*dA*dG*dT*dT*eT*e[5mC]*eT*eG*eG) [compound 417006]  81%
